Assay results taken from patent US12365696B2, “Small-molecule focal adhesion kinase (FAK) inhibitors” (DANA-FARBER CANCER INSTITUTE, INC., priority 2019, dated 2025).

What was measured:
Experiment in all cases: KINOMEscan
Type in all cases: binding
WNK2 = WNK2 (Homo sapiens (Human), UniProt Q9Y3S1); settings: WNK2, 10000 nM; read-out: Percent Control
PIP5K1C = PIP5K1C (Homo sapiens (Human), UniProt O60331); settings: 10000 nM, read-out: Percent Control
EPHA6 = EPHA6 (Homo sapiens (Human), UniProt Q9UF33); settings: EPHA6, 10000 nM; read-out: Percent Control
MST4 = MST4 (Homo sapiens (Human), UniProt Q9P289); settings: MST4, 10000 nM; read-out: Percent Control
FLT3(ITD) = settings: 10000 nM
MYLK4 = MYLK4 (Homo sapiens (Human), UniProt Q86YV6); settings: MYLK4, 10000 nM; read-out: Percent Control
ANKK1 = ANKK1 (Homo sapiens (Human), UniProt Q8NFD2); settings: ANKK1, 10000 nM; read-out: Percent Control
FLT3-autoinhibited = FLT3-autoinhibited (Homo sapiens (Human), UniProt P36888); settings: 10000 nM, read-out: Percent Control
DLK = DLK (Homo sapiens (Human), UniProt Q12852); settings: 10000 nM, read-out: Percent Control
GRK7 = GRK7 (Homo sapiens (Human), UniProt Q8WTQ7); settings: GRK7, 10000 nM; read-out: Percent Control
NEK2 = NEK2 (Homo sapiens (Human), UniProt P51955); settings: NEK2, 10000 nM; read-out: Percent Control
RET(V804L) = RET(V804L) (Homo sapiens (Human), UniProt P07949, V804L); settings: 10000 nM, read-out: Percent Control
CDK7 = CDK7 (Homo sapiens (Human), UniProt P50613); settings: CDK7, 10000 nM; read-out: Percent Control
PRKR = PRKR (Homo sapiens (Human), UniProt P19525); settings: 10000 nM, read-out: Percent Control
PLK3 = PLK3 (Homo sapiens (Human), UniProt Q9H4B4); settings: PLK3, 10000 nM; read-out: Percent Control
CSNK1A1L = CSNK1A1L (Homo sapiens (Human), UniProt Q8N752); settings: 10000 nM, read-out: Percent Control
[1] = biological target: TYK2(JH2domain-pseudokinase) (Homo sapiens (Human), UniProt P29597); settings: 10000 nM, read-out: Percent Control
SLK = SLK (Homo sapiens (Human), UniProt Q9H2G2); settings: 10000 nM, read-out: Percent Control
WEE2 = WEE2 (Homo sapiens (Human), UniProt P0C1S8); settings: WEE2, 10000 nM; read-out: Percent Control
[2] = biological target: RPS6KA5(Kin.Dom.1-N-terminal) (Homo sapiens (Human), UniProt O75582); settings: 10000 nM, read-out: Percent Control
[3] = biological target: JAK1(JH2domain-pseudokinase) (Homo sapiens (Human), UniProt P23458); settings: 10000 nM, read-out: Percent Control
MAP3K2 = MAP3K2 (Homo sapiens (Human), UniProt Q9Y2U5); settings: MAP3K2, 10000 nM; read-out: Percent Control
MAST1 = MAST1 (Homo sapiens (Human), UniProt Q9Y2H9); settings: MAST1, 10000 nM; read-out: Percent Control
MEK6 = MEK6 (Homo sapiens (Human), UniProt P52564); settings: MEK6, 10000 nM; read-out: Percent Control
BLK = BLK (Homo sapiens (Human), UniProt P51451); settings: 10000 nM, read-out: Percent Control
[4] = biological target: JAK3(JH1domain-catalytic) (Homo sapiens (Human), UniProt P52333); settings: 10000 nM, read-out: Percent Control
MRCKB = MRCKB (Homo sapiens (Human), UniProt Q9Y5S2); settings: 10000 nM, read-out: Percent Control
SGK = SGK (Homo sapiens (Human), UniProt O00141); settings: 10000 nM, read-out: Percent Control
CSNK1A1 = CSNK1A1 (Homo sapiens (Human), UniProt P48729); settings: CSNK1A1, 10000 nM; read-out: Percent Control
CLK4 = CLK4 (Homo sapiens (Human), UniProt Q9HAZ1); settings: CLK4, 10000 nM; read-out: Percent Control
PRKCD = PRKCD (Homo sapiens (Human), UniProt Q05655); settings: 10000 nM, read-out: Percent Control
NIM1 = NIM1 (Homo sapiens (Human), UniProt Q8IY84); settings: NIM1, 10000 nM; read-out: Percent Control
BRSK2 = BRSK2 (Homo sapiens (Human), UniProt Q8IWQ3); settings: BRSK2, 10000 nM; read-out: Percent Control
ERBB3 = ERBB3 (Homo sapiens (Human), UniProt P21860); settings: ERBB3, 10000 nM; read-out: Percent Control
CDC2L1 = CDC2L1 (Homo sapiens (Human), UniProt P21127); settings: CDC2L1, 10000 nM; read-out: Percent Control

Sequence of PRKR (P19525 whole entry): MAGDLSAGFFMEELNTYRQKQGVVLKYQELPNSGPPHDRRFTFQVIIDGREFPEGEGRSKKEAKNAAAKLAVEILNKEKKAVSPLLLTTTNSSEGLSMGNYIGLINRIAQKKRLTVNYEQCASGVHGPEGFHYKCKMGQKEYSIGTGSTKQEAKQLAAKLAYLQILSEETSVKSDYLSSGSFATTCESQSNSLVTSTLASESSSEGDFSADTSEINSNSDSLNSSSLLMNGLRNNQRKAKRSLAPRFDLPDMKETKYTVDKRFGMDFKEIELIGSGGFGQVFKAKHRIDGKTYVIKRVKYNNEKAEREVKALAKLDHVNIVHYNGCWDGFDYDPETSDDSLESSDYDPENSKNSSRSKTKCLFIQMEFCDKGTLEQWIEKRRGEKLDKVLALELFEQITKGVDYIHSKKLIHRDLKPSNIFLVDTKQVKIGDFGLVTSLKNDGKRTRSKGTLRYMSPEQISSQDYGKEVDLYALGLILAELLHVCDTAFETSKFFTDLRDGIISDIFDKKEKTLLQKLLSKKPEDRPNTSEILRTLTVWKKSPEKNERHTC
Sequence of MAST1 (Q9Y2H9 whole entry): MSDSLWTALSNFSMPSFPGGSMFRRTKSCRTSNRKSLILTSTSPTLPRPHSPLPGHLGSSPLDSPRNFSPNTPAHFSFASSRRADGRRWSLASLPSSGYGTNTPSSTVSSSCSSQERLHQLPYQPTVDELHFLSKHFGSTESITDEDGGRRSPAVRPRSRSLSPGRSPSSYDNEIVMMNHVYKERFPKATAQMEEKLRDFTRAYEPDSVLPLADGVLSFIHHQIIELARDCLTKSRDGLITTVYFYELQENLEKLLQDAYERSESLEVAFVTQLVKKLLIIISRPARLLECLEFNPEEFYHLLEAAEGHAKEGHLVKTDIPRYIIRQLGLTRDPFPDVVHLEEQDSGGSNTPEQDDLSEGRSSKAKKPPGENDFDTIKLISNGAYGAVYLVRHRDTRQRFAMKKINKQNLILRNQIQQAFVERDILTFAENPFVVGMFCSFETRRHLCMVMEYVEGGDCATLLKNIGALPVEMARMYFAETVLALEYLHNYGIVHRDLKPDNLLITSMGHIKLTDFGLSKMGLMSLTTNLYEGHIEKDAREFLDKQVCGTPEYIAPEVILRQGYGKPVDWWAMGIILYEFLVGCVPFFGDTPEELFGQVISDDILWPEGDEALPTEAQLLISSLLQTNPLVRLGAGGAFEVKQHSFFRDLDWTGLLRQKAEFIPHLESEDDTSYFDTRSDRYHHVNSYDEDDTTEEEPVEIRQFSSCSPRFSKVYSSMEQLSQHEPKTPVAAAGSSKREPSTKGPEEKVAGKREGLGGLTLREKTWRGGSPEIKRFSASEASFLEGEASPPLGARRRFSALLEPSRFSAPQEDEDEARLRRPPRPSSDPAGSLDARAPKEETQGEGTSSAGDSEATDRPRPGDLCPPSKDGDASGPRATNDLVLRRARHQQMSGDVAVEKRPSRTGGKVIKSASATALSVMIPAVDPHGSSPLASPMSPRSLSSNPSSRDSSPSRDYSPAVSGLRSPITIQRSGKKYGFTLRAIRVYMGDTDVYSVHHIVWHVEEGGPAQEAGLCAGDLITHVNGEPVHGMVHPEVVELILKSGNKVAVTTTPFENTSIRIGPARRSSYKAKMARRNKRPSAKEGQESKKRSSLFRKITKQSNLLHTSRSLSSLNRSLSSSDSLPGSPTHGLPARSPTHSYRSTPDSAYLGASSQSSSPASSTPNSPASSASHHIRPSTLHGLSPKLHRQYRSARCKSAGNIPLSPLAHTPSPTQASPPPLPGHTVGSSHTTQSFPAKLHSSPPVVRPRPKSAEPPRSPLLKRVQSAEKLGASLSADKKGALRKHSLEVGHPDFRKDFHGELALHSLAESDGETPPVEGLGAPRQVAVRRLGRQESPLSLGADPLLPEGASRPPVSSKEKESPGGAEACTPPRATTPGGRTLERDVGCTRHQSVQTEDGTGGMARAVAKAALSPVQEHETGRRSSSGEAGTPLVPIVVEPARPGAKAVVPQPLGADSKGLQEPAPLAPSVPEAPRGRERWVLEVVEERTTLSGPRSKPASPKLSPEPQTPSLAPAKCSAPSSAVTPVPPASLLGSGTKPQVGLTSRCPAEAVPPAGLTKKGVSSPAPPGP
Sequence of BRSK2 (Q8IWQ3 whole entry): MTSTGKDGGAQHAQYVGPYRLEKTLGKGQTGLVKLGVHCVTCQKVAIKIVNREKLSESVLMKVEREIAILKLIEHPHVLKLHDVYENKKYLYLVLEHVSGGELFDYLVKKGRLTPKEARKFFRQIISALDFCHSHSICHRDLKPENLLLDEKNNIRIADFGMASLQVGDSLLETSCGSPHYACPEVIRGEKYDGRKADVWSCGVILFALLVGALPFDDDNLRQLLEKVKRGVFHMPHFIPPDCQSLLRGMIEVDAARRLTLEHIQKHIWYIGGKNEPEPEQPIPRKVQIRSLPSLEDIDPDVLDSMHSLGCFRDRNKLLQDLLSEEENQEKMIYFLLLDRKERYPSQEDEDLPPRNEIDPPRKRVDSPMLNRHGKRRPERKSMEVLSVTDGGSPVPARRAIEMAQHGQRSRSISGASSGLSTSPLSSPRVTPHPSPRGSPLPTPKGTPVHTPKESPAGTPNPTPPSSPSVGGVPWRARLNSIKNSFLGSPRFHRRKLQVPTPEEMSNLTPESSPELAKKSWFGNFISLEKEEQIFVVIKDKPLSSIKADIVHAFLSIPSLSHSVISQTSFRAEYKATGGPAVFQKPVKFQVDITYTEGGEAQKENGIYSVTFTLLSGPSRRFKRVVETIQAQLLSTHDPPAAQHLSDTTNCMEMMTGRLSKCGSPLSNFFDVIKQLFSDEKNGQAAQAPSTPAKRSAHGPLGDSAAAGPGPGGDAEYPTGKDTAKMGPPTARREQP
Sequence of MRCKB (Q9Y5S2 whole entry): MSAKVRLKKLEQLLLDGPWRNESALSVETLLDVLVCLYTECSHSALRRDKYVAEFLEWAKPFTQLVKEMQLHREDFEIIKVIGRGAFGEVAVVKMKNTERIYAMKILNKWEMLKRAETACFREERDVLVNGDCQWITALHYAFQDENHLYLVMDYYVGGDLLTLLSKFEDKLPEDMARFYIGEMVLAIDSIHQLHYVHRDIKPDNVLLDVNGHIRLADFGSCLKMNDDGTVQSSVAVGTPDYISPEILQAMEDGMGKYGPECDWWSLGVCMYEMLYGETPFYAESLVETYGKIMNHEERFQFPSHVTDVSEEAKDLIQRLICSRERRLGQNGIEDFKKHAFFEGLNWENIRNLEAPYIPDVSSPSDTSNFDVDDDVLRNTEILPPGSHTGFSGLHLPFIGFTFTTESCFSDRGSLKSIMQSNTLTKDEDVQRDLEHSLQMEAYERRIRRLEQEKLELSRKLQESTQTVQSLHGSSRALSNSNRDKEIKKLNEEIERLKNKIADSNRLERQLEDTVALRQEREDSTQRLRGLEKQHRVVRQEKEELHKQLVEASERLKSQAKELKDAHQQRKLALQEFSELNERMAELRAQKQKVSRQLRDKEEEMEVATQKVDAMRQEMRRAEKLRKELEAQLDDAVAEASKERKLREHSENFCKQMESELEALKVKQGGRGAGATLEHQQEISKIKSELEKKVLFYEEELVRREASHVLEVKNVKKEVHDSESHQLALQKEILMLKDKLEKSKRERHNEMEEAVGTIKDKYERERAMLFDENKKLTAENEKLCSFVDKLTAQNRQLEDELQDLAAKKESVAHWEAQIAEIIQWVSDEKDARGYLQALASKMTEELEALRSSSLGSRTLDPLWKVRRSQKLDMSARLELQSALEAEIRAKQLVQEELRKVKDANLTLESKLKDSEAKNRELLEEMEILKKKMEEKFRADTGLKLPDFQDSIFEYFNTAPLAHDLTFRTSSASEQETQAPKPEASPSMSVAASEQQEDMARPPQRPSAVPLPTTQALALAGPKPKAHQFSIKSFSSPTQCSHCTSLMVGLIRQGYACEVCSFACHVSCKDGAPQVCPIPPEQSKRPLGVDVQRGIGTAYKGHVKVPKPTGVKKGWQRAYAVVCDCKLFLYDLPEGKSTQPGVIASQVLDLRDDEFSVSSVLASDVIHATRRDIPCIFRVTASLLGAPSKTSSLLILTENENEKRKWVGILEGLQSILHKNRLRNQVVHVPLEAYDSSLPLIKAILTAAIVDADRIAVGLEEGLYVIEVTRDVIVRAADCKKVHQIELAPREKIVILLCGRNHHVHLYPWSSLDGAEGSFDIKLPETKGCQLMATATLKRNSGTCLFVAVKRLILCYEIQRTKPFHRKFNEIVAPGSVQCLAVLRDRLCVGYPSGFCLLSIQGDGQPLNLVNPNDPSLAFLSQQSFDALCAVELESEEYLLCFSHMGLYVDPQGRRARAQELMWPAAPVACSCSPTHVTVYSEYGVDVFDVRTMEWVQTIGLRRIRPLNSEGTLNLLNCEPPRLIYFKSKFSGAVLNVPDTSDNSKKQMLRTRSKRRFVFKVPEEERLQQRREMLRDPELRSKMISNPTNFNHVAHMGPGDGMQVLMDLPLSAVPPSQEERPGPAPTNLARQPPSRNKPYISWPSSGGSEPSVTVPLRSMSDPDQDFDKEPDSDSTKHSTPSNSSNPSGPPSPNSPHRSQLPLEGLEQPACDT
Sequence of MYLK4 (Q86YV6 whole entry): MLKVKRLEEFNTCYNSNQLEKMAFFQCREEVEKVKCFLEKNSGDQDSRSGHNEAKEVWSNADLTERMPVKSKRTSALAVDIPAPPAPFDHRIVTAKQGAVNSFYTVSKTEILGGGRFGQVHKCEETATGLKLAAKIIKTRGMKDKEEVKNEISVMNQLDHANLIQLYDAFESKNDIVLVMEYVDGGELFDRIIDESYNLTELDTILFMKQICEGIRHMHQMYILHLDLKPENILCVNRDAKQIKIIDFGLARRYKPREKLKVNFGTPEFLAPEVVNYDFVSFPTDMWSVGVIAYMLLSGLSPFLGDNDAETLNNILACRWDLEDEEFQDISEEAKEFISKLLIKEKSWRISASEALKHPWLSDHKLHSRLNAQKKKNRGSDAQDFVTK

Structure (SMILES)	remaining binding at 10 µM (WNK2) [%]	remaining binding at 10 µM (PIP5K1C) [%]	remaining binding at 10 µM (EPHA6) [%]	remaining binding at 10 µM (MST4) [%]	Percent Control (FLT3(ITD)) [%]	remaining binding at 10 µM (MYLK4) [%]	remaining binding at 10 µM (ANKK1) [%]	remaining binding at 10 µM (FLT3-autoinhibited) [%]	remaining binding at 10 µM (DLK) [%]	remaining binding at 10 µM (GRK7) [%]	remaining binding at 10 µM (NEK2) [%]	remaining binding at 10 µM (RET(V804L)) [%]	remaining binding at 10 µM (CDK7) [%]	remaining binding at 10 µM (PRKR) [%]	remaining binding at 10 µM (PLK3) [%]	remaining binding at 10 µM (CSNK1A1L) [%]	remaining binding at 10 µM [1] [%]	remaining binding at 10 µM (SLK) [%]	remaining binding at 10 µM (WEE2) [%]	remaining binding at 10 µM [2] [%]	further results
COc1cc(N2CCC(N3CCN(C)CC3)CC2)ccc1Nc1ncc2c(n1)N(C)c1sc(C)nc1C(=O)N2 [Compound 3, 6-((2-methoxy-4-(4-(4-methylpiperazin-1-yl)piperidin-1-yl)phenyl)amino)-2,4-dimethyl-4,9-dihydro-10H-pyrimido[5,4-b]thiazolo[5,4-e][1,4]diazepin-10-one]	74	99	83	100	83	77	80	100	90	97	84	95	94	100	52	78	100	70	65	70	remaining binding at 10 µM [3]: 85%; remaining binding at 10 µM (MAP3K2): 100%; remaining binding at 10 µM (MAST1): 84%; remaining binding at 10 µM (MEK6): 100%; remaining binding at 10 µM (BLK): 55%; remaining binding at 10 µM [4]: 83%; remaining binding at 10 µM (MRCKB): 100%; remaining binding at 10 µM (SGK): 100%; remaining binding at 10 µM (CSNK1A1): 62%; remaining binding at 10 µM (CLK4): 76%; remaining binding at 10 µM (PRKCD): 86%; remaining binding at 10 µM (NIM1): 100%; remaining binding at 10 µM (BRSK2): 78%; remaining binding at 10 µM (ERBB3): 100%; remaining binding at 10 µM (CDC2L1): 74%
COc1cc(N2CCC(N3CCN(C)CC3)CC2)ccc1Nc1ncc2c(n1)N(C)c1sc(C)nc1C(=O)N2C [Compound 5, 6-((2-methoxy-4-(4-(4-methylpiperazin-1-yl)piperidin-1-yl)phenyl)amino)-2,4,9-trimethyl-4,9-dihydro-10H-pyrimido[5,4-b]thiazolo[5,4-e][1,4]diazepin-10-one]	100	95	86	100	100	100	92	99	86	100	100	93	100	65	20	100	100	100	100	91	remaining binding at 10 µM [3]: 89%; remaining binding at 10 µM (MAP3K2): 100%; remaining binding at 10 µM (MAST1): 100%; remaining binding at 10 µM (MEK6): 98%; remaining binding at 10 µM (BLK): 95%; remaining binding at 10 µM [4]: 100%; remaining binding at 10 µM (MRCKB): 100%; remaining binding at 10 µM (SGK): 100%; remaining binding at 10 µM (CSNK1A1): 97%; remaining binding at 10 µM (CLK4): 85%; remaining binding at 10 µM (PRKCD): 94%; remaining binding at 10 µM (NIM1): 100%; remaining binding at 10 µM (BRSK2): 91%; remaining binding at 10 µM (ERBB3): 100%; remaining binding at 10 µM (CDC2L1): 100%
